Key:
[1] = tested on: Polyarthritis; test: Polyarthritis induced by Mycobacterium butyricum in rats: inhibition of paw volume increase after oral dosing; assay type: in vivo, Lewis strain laboratory rats; details: percent inhibition of paw volume increase
Description: Polyarthritis was induced in Lewis strain laboratory rats (weight = about 200 grams) by injection of a suspension of Mycobacterium butyricum in mineral oil into the subplantar tissue of the mammal's hind paws. On day 10 after the injection, the rats were assigned to groups, and paw volumes and body weights were recorded. Paw volumes of the contralateral, uninjected hind paw were determined by mercury plethylsmography. Per oral (p.o.) dosing began and continued for five consecutive days thereafter. On day 14 after the initial injection, approximately four hours after the final dose was administered, paw volumes and body weights were recorded and quantitated.
Anti-inflammatory activity of the N-hydroxypropanamide pyrazole compounds is expressed as the percent inhibition of paw volume increase.

[2] = molecular target: T1, lipoxygenase (Rattus norvegicus, UniProt P12527); test: Ex vivo arachidonic acid metabolism of rat pleural exudate cells after oral dosing, lipoxygenase products (5-HETE, leukotriene B₄); assay type: in vivo, Sprague-Dawley rats; details: for inhibition at 30 mg/kg: 30 mpk; for ED50: oral dose, ex vivo rat pleural exudate cells, read-out: IC₅₀, p.o. Lipoxygenase
T1 construct: endogenous in cells; host or cells: pleural exudate cells of carrageenan-treated Sprague-Dawley rats
T1 sequence (P12527 1-673): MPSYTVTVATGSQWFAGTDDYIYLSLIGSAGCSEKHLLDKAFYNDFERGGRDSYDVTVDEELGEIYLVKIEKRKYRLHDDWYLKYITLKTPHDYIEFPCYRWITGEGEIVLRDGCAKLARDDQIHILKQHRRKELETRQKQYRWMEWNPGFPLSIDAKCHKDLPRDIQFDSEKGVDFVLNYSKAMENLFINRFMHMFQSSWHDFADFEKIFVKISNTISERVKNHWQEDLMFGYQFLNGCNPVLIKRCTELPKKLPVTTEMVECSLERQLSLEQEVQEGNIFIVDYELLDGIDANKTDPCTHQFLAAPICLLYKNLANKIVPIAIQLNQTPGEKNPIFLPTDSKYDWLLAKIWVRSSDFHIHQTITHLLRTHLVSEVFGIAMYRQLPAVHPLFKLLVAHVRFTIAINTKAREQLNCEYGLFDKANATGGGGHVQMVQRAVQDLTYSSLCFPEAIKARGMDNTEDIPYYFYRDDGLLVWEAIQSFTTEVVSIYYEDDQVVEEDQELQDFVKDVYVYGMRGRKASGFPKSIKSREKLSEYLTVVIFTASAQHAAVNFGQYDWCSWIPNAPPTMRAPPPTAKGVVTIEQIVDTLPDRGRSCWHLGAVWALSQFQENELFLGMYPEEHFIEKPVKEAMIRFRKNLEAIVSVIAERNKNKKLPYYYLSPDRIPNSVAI
Description: This assay determines the ability of orally administered compounds to inhibit arachidonic acid metabolism with rat pleural exudate cells, via the lipoxygenase and/or cyclooxygenase enzymes. Sprague-Dawley rats (250 - 275 gm) are fasted overnight. The next morning, an acute inflammatory response is induced by the intra-thoracic injection of 1 ml of 0.25% carrageenan. Three hours later the rats are dosed orally with the test compounds at a screening dose of 16.5-30 mpk. Thirty minutes to one hour later the rats are sacrificed and pleural fluid harvested. The exudate fluids are diluted 1:5 using Hanks BSS and stimulated using 10 µg/ml calcium ionophore A-23187. The reaction is stopped after 15 minutes by the addition of 25 µl of 1N HCl, and the samples are centrifuged at 1000 g to sediment the cells. The supernate is extracted and applied to a C-18 HPLC column. The arachidonic acid metabolites 12-HHT (cyclooxygenase), 5-HETE, and leukotriene B₄ (lipoxygenase) are eluted using an acetonitrile methanol gradient and detected by UV absorption at 235 and 270 nm. The percent inhibition of the arachidonic acid metabolites is indicative of the anti-inflammatory activity of the tested compound and the results of this method for several compounds of the invention are listed in Table 13. The values shown are the percent inhibition at the dose indicated except for the those cases in which the IC₅₀ value is given.

[3] = rat, po, exudate cells stimulated with 10 µg/ml calcium ionophore A-23187, read-out: %INH., p.o. Lipoxygenase (mpk)

## COc1ccc(-n2nc(C(O)c3ccc(C)cc3)cc2-c2ccc(C)cc2)cc1 (stereo not drawn) [Compound 92]
[1]; 10 mpk
  %INH., p.o. (mpk): 27% @ 10

## COc1ccc(-n2nc(C(O)c3ccc4ccccc4c3)cc2-c2ccc(C)cc2)cc1 (stereo not drawn) [Compound 94]
[1]; 10 mpk
  %INH., p.o. (mpk): 29% @ 10

## COc1ccc(-c2cc(C(O)c3ccccc3)nn2-c2ccc(OC)cc2)cc1 (stereo not drawn) [Compound 105, [1,5-Bis(4-methoxyphenyl)-3-pyrazolyl]-1-phenylmethanol]
[1]; 15 mpk
  %INH., p.o. (mpk): 49% @ 15

## COc1ccc(-n2nc(C(=O)c3ccc(Cl)cc3)cc2-c2ccc(C)cc2)cc1 [Compound 108]
[1]; 10 mpk
  %INH., p.o. (mpk): 25% @ 10

## COc1ccc(-n2nc(C(=O)c3ccc(C)cc3)cc2-c2ccc(C)cc2)cc1 [Compound 109, 1-(4-Methoxyphenyl)-3-(4-methylbenzoyl)-5-(4-methylphenyl)pyrazole]
[2]; [3]
  inhibition at 30 mg/kg: 62%

## CCOC(=O)/C=C(/c1ccc(C)cc1)c1cc(-c2ccc(C)cc2)n(-c2ccc(OC)cc2)n1 [Compound 125, (Z)-Ethyl 3-[1(4-methoxyphenyl)-5-(4-methylphenyl)-3-pyrazolyl]-3-(4-methylphenyl)propenoate]
[2]
  ED50: 9 mg/kg

## CCOC(=O)/C=C(/c1ccc(-c2ccccc2)cc1)c1cc(-c2ccc(C)cc2)n(-c2ccc(OC)cc2)n1 [Compound 132]
[2]; rat, po, 16.5 mpk, exudate cells stimulated with 10 µg/ml calcium ionophore A-23187, read-out: %INH., p.o. Lipoxygenase (mpk)
  inhibition at 16.5 mg/kg: 34%

## CCOC(=O)CC(c1cc(-c2ccc(C)cc2)n(-c2ccc(OC)cc2)n1)c1cccc2ccccc12 (stereo not drawn) [Compound 150]
[2]; [3]
  inhibition at 30 mg/kg: 42%

## COc1ccc(-n2nc(/C(=C/C(=O)O)c3ccccc3)cc2-c2ccc(C)cc2)cc1 [Compound 155, (E)-3-[1-(4-Methoxyphenyl)-5-(4-methylphenyl)-3-pyrazolyl]-3-phenyl-2-propenoic acid]
[1]; 10 mpk
  %INH., p.o. (mpk): 62% @ 10

## COc1ccc(-n2nc(/C(=C/C(=O)O)c3ccc(Cl)cc3)cc2-c2ccc(C)cc2)cc1 [Compound 157, (E)-3-(4-Chlorophenyl)-3-[1-(4-methoxyphenyl)-5-(4-methylphenyl)-3-pyrazolyl]propenoic acid]
[1]; 10 mpk
  %INH., p.o. (mpk): 24% @ 10

## COc1ccc(-n2nc(/C(=C\C(=O)O)c3ccc(Cl)cc3)cc2-c2ccc(C)cc2)cc1 [Compound 158, (Z)-3-(4-Chlorophenyl)-3-[1-(4-methoxyphenyl)-5-(4-methylphenyl)-3-pyrazolyl]propenoic acid]
[2]; rat, po, 17.5 mpk, exudate cells stimulated with 10 µg/ml calcium ionophore A-23187, read-out: %INH., p.o. Lipoxygenase (mpk)
  inhibition at 17.5 mg/kg: 53%

## COc1ccc(-n2nc(/C(=C/C(=O)N(C)O)c3ccc(F)cc3)cc2-c2ccc(C)cc2)cc1 [Compound 163, (E)-3-(4-Fluorophenyl)-N-hydroxy-3-[1-(4-methoxyphenyl)-5-(4-methylphenyl)-3-pyrazolyl]-N-methylpropenamide]
[2]
  ED50: 10 mg/kg

## COc1ccc(-n2nc(/C(=C/C(=O)N(C)O)c3ccc(Cl)cc3)cc2-c2ccc(C)cc2)cc1 [Compound 164]
[1]; 10 mpk
  %INH., p.o. (mpk): 22% @ 10

## COc1ccc(-n2nc(/C(=C\C(=O)N(C)O)c3ccc(Cl)cc3)cc2-c2ccc(C)cc2)cc1 [Compound 165]
[2]; [3]
  inhibition at 30 mg/kg: 12%

## COc1ccc(-n2nc(/C(=C/C(=O)N(C)O)c3ccc(-c4ccccc4)cc3)cc2-c2ccc(C)cc2)cc1 [Compound 168]
[2]; [3]
  inhibition at 30 mg/kg: 3%

Source: EP0293220B1, “Pharmacologically active 2-and 3-substituted (1', 5'-diaryl-3-pyrazolyl)-N-Hydroxypropanamides and method for synthesizing” (ORTHO PHARMACEUTICAL CORPORATION, priority 1987, dated 1988)
